US10335503B2, “Compound that specifically binds to AMPA receptor” (Public University Corporation Yokohama City University, priority 2015, dated 2019)

How the values were obtained:
[1] = target: Neurokinin NK3 (Homo sapiens, UniProt P29371); experiment: Receptor binding panel: Neurokinin NK3; settings: K-2 at 1 × 10^−7 mol/L
[2] = tested on: K Channel KATP; experiment: Receptor binding panel: K Channel KATP; settings: K-2 at 1 × 10^−7 mol/L
[3] = target: Sigma σ2 (Homo sapiens, UniProt Q5BJF2); experiment: Receptor binding panel: Sigma σ2; settings: K-2 at 1 × 10^−7 mol/L
[4] = target: Bradykinin B2 (Homo sapiens, UniProt P30411); experiment: Receptor binding panel: Bradykinin B2; settings: K-2 at 1 × 10^−7 mol/L
[5] = target: Androgen (Homo sapiens, UniProt P10275); experiment: Receptor binding panel: Androgen; settings: K-2 at 1 × 10^−7 mol/L
[6] = target: T1, CRF1 (Homo sapiens, UniProt P34998); experiment: Receptor binding panel: CRF1; settings: K-2 at 1 × 10^−7 mol/L
T1 sequence (P34998 24-415): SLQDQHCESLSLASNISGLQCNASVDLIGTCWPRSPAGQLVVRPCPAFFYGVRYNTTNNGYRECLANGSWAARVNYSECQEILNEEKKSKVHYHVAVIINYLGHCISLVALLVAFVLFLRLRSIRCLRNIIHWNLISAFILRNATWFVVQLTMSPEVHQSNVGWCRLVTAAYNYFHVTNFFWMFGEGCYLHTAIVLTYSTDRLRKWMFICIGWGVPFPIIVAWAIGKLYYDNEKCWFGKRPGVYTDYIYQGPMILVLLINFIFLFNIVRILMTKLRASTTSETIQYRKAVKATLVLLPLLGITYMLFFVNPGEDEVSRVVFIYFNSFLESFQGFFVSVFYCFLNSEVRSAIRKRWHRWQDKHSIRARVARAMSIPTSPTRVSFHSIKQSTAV

[7] = tested on: Ca channel (Type L, Dihydropyridine); experiment: Receptor binding panel: Ca channel (Type L, Dihydropyridine); settings: K-2 at 1 × 10^−7 mol/L
[8] = target: α1A-Adrenergic (Homo sapiens, UniProt P35348); experiment: Receptor binding panel: α1A-Adrenergic; settings: K-2 at 1 × 10^−7 mol/L
[9] = tested on: Glutamate (Kainate); experiment: Receptor binding panel: Glutamate (Kainate); settings: K-2 at 1 × 10^−7 mol/L
[10] = target: Opiate δ (Homo sapiens, UniProt P41143); experiment: Receptor binding panel: Opiate δ; settings: K-2 at 1 × 10^−7 mol/L
[11] = tested on: AMPA receptor; experiment: Electrophysiological experiment: AMPA current by whole-cell recording in acute hippocampus section; type: cell-based, rat; settings: 150 μM in ACSF for 15 minutes, CA1 pyramidal cell, ground state converted as 1
Method: In the LC-MS/MS experiment, all of the synthesized compounds were dissolved in 100% DMSO so as to have a concentration of 2.5 mM, diluted with physiological saline water immediately before administration (PEPA (1.2 pmol/g), M-1 (12 pmol/g), K-2 (12 pmol/g), M-3 (60 pmol/g), and M-2 (240 pmol/g)), and administered by the parenteral route. In the electrophysiological experiment, PEPA and K-2 were dissolved in 100% DMSO so as to have a concentration of 150 mM, diluted with ACSF as a reflux liquid immediately before the experiment so as to have a concentration of 150 μM and then used. […]
A 7- to 8-week-old male SD rat was used. […] The section was left to stand still in ACSF at room temperature for 60 minutes, and then the AMPA current was measured by a whole-cell recording method. 100 μM of picrotoxin and 100 μM of DL-APV were administered under the condition that the ACSF was refluxed at a rate of 3 ml/min, and then only the AMPA current was isolated and measured.
The recording electrode was placed on a pyramidal cell in CA1, and the exciting electrode was placed on the Schaffer fiber separated away from the recording cell by 100 to 200 μm. […] The AMPA current in the ground state was recorded for 5 minutes, reflux was thereafter performed using ACSF added with PEPA or K-2 for 15 minutes, and then the AMPA current was recorded in the reflux liquid not containing PEPA or K-2 for 30 minutes. […]

[12] = tested on: Leukotriene D4; experiment: Receptor binding panel: Leukotriene D4; settings: K-2 at 1 × 10^−7 mol/L
[13] = target: Neurokinin NK1 (Homo sapiens, UniProt P25103); experiment: Receptor binding panel: Neurokinin NK1; settings: K-2 at 1 × 10^−7 mol/L
[14] = target: α1B-Adrenergic (Homo sapiens, UniProt P35368); experiment: Receptor binding panel: α1B-Adrenergic; settings: K-2 at 1 × 10^−7 mol/L
[15] = target: Vasopressin V1 (Homo sapiens, UniProt P37288); experiment: Receptor binding panel: Vasopressin V1; settings: K-2 at 1 × 10^−7 mol/L
[16] = tested on: Glutamate (NMDA agonist site); experiment: Receptor binding panel: Glutamate (NMDA agonist site); settings: K-2 at 1 × 10^−7 mol/L
[17] = target: VIP 1 (Homo sapiens, UniProt P32241); experiment: Receptor binding panel: VIP 1; settings: K-2 at 1 × 10^−7 mol/L
[18] = target: Muscarinic M2 (Homo sapiens, UniProt P08172); experiment: Receptor binding panel: Muscarinic M2; settings: K-2 at 1 × 10^−7 mol/L
[19] = target: α2A-Adrenergic (Homo sapiens, UniProt P08913); experiment: Receptor binding panel: α2A-Adrenergic; settings: K-2 at 1 × 10^−7 mol/L
[20] = target: β1-Adrenergic (Homo sapiens, UniProt P08588); experiment: Receptor binding panel: β1-Adrenergic; settings: K-2 at 1 × 10^−7 mol/L
[21] = target: Angiotensin AT2 (Homo sapiens, UniProt P50052); experiment: Receptor binding panel: Angiotensin AT2; settings: K-2 at 1 × 10^−7 mol/L

Opiate δ, sequence (P41143 whole entry): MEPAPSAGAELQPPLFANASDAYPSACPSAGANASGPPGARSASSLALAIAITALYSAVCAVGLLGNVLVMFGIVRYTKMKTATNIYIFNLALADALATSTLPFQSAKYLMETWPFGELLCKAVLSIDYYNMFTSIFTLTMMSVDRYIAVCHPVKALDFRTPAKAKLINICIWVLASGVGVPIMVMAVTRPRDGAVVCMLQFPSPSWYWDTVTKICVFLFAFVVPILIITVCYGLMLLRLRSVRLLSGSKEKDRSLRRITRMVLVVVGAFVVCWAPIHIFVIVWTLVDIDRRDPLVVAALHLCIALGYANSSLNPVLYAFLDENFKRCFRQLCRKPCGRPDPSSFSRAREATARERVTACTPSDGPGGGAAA
Muscarinic M2, sequence (P08172 whole entry): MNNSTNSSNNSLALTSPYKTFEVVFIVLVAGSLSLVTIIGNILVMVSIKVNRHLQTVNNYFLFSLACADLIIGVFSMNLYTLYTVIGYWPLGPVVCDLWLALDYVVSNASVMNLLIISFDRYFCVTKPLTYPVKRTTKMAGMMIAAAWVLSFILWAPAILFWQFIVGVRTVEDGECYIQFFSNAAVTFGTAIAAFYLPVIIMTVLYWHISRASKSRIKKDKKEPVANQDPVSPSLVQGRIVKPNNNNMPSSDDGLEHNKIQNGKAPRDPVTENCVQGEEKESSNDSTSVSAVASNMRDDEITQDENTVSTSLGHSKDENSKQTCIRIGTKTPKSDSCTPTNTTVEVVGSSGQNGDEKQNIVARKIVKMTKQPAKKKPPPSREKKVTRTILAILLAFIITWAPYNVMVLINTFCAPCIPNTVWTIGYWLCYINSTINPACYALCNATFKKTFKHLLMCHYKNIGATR
β1-Adrenergic, sequence (P08588 whole entry): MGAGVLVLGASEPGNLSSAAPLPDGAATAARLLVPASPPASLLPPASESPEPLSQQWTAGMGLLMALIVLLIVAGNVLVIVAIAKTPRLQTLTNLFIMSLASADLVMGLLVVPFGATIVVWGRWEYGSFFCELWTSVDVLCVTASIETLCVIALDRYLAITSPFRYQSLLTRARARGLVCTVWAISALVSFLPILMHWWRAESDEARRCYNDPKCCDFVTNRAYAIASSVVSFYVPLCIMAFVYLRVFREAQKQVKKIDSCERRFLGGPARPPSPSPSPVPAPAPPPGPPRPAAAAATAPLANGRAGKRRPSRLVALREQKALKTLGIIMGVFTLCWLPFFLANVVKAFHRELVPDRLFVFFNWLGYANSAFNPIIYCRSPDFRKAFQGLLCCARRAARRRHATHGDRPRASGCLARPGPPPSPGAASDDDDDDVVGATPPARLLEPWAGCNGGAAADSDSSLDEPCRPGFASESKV
Neurokinin NK3, sequence (P29371 whole entry): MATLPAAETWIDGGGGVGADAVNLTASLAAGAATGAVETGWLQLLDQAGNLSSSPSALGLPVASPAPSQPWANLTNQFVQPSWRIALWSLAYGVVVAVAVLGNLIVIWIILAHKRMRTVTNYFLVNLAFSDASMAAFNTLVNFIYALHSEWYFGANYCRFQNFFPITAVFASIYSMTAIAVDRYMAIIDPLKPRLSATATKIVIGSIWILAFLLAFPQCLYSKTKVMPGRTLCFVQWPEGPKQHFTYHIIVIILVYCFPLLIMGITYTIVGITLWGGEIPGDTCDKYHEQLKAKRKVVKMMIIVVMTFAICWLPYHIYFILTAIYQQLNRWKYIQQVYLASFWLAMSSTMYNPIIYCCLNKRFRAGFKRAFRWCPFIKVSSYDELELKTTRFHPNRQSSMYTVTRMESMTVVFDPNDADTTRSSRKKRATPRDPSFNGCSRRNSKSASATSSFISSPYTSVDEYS
Sigma σ2, sequence (Q5BJF2 whole entry): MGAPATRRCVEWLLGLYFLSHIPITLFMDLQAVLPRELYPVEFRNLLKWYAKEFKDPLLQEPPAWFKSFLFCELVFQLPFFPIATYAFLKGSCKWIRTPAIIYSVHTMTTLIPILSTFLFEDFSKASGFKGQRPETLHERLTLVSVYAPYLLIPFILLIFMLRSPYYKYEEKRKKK
α1B-Adrenergic, sequence (P35368 whole entry): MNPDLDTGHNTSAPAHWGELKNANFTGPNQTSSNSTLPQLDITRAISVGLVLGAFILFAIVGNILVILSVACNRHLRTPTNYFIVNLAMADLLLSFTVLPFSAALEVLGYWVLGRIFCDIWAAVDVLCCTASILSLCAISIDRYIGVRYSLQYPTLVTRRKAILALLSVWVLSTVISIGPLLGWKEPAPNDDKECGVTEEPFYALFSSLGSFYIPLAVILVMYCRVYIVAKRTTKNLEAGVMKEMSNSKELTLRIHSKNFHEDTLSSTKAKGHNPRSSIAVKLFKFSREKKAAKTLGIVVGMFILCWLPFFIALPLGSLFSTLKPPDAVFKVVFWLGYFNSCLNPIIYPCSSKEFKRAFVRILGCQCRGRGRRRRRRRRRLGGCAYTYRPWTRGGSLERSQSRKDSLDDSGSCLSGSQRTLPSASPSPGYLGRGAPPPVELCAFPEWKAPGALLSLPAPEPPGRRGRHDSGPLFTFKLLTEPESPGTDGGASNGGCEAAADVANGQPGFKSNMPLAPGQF
Androgen, sequence (P10275 whole entry): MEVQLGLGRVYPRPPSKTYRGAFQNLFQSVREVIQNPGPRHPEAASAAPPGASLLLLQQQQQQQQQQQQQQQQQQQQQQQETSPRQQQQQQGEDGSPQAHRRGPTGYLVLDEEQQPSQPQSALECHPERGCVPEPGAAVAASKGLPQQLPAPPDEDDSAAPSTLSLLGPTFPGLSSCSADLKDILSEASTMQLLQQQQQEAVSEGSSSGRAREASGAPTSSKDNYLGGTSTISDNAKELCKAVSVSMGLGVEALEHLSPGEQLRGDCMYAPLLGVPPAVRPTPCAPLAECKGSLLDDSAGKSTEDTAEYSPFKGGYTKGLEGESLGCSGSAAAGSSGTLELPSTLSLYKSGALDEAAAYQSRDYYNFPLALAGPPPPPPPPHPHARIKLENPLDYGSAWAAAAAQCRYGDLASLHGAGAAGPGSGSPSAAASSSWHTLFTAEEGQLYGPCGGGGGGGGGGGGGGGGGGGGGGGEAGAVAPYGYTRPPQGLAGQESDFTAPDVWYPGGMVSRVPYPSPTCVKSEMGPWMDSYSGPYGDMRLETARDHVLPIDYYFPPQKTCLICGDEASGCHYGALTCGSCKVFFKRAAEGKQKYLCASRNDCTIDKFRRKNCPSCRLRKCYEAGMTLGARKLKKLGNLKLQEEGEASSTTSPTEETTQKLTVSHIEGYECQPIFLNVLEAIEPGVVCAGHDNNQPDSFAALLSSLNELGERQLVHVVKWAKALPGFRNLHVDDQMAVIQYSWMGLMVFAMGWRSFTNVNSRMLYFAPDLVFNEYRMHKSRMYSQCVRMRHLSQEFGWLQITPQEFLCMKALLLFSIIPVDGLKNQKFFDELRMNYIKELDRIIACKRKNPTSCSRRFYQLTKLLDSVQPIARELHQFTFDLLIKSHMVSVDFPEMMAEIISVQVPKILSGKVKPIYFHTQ
VIP 1, sequence (P32241 31-457): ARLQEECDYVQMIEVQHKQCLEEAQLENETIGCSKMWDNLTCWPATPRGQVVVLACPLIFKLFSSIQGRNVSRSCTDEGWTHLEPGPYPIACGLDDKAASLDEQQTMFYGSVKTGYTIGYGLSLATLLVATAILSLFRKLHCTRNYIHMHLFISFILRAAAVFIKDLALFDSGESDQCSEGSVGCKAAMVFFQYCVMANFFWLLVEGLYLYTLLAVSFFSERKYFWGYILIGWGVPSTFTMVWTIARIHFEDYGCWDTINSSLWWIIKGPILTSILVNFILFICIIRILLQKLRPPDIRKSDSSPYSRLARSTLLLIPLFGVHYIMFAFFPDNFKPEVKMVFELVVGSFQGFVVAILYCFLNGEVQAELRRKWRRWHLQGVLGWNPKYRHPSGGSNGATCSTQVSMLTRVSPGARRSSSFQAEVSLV
Bradykinin B2, sequence (P30411 whole entry): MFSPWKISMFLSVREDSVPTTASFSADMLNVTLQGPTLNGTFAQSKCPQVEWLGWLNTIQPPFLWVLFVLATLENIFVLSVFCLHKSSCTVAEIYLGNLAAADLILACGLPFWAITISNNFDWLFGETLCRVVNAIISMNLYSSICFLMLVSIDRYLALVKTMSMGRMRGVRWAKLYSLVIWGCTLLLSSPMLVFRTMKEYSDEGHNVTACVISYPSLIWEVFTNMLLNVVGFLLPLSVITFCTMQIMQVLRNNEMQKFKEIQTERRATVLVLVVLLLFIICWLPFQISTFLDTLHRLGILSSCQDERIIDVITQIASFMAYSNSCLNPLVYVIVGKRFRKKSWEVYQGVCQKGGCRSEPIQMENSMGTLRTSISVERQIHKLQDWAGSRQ
Vasopressin V1, sequence (P37288 whole entry): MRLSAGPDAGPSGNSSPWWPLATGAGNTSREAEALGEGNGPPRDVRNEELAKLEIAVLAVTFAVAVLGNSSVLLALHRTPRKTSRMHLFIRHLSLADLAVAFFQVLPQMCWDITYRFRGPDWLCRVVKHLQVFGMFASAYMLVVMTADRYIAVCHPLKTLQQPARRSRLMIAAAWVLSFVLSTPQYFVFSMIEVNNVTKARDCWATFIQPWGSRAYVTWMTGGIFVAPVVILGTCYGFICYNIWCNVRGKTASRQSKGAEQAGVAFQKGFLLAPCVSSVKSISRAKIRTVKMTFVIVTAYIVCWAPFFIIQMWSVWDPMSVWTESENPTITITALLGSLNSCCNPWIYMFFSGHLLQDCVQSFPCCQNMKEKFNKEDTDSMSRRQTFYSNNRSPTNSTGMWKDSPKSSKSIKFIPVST

CN(CCSc1cc(F)c(OCC(N)=O)c(F)c1)S(=O)(=O)c1ccccc1 [K-2, {4-[2-(benzenesulfonyl-methyl-amino)-ethylsulfanil]-2,6-difluoro-phenoxy}-acetamide]
inhibition at 0.1 µM [1]: 0% | Inhibition (%) [2]: 5.71% | inhibition at 0.1 µM [3]: 4.07% | inhibition at 0.1 µM [4]: 10.3% | inhibition at 0.1 µM [5]: 0.57% | inhibition at 0.1 µM [6]: 1.37% | Inhibition (%) [7]: 0.53% | inhibition at 0.1 µM [8]: 0.21% | Inhibition (%) [9]: 1.68% | inhibition at 0.1 µM [10]: 0.3% | ratio of AMPA current to reference value [11]: 1.7±0.22 | Inhibition (%) [12]: 0.16% | inhibition at 0.1 µM [13]: 0% | inhibition at 0.1 µM [14]: 0% | inhibition at 0.1 µM [15]: 4.76% | Inhibition (%) [16]: 0.57% | inhibition at 0.1 µM [17]: 0% | inhibition at 0.1 µM [18]: 0.51% | inhibition at 0.1 µM [19]: 8.77% | inhibition at 0.1 µM [20]: 0.82% | inhibition at 0.1 µM [21]: 1.05%
